Experimental data reported in ChEMBL document CHEMBL1921674, “Novel tricyclic inhibitors of IKK2: discovery and SAR leading to the identification of 2-methoxy-N-((6-(1-methyl-4-(methylamino)-1,6-dihydroimidazo[4,5-d]pyrrolo[2,3-b]pyridin-7-yl)pyridin-2-yl)methyl)acetamide (BMS-066)” (Bioorg Med Chem Lett, 2011).
Activity calls are given as the source filed them. The calls are words filed in the database; no cut-off is given here.

Columns and labels:
[1] = Half life in Lewis rat at 2 mg/kg, iv; format: ADME, organism-based; set-up: dose 2 mg/kg, route intravenous; conditions: in vivo
[2] = Half life in mouse at 2 mg/kg, iv; format: ADME, organism-based; set-up: dose 2 mg/kg, route intravenous; conditions: in vivo
[3] = Oral bioavailability in mouse at 3 mg/kg; format: ADME, organism-based; conditions: in vivo
[4] = system: Mus musculus; assay: Reduction in TNBS-induced colitis in mouse […] model assessed as decrease in tissue damage at 10 mg/kg administered intrarectally 1 day before TNBS challenge twice daily for 4 days by hematoxylin-eosin staining relative to control; format: functional, organism-based; set-up: dose 10 mg/kg
[5] = Clearance in Lewis rat at 2 mg/kg, iv; format: ADME, organism-based; set-up: dose 2 mg/kg, route intravenous; conditions: in vivo
[6] = Protein binding in human serum; format: ADME, cell-free; conditions: read-out: PB (converted)
[7] = Volume of distribution at steady state in dog at 1 mg/kg, iv; format: ADME, organism-based, Canis lupus familiaris; set-up: dose 1 mg/kg, route intravenous; conditions: in vivo, read-out: Vdss
[8] = system: Mus musculus; assay: Reduction in TNBS-induced colitis in mouse […] model assessed as decrease of body weight loss at 10 mg/kg, administered intrarectally 1 day before TNBS challenge twice daily for 4 days; format: functional, organism-based; set-up: dose 10 mg/kg
[9] = Protein binding in rat serum; format: ADME, cell-free; conditions: read-out: PB (converted)
[10] = AUC in SJL mouse liver at 8 mg/kg, iv after 8 hrs; format: ADME, organism-based; set-up: time < 8 hr, dose 8 mg/kg, route intravenous
[11] = system: PBMC; assay: Antiinflammatory activity in human PBMC assessed as inhibition of LPS-induced TNFalpha release treated for 5 mins before LPS challenge measured after 4 hrs by ELISA; format: functional, cell-based; conditions: Homo sapiens, PBMC
[12] = Half life in dog at 1 mg/kg, iv; format: ADME, organism-based, Canis lupus familiaris; set-up: dose 1 mg/kg, route intravenous; conditions: in vivo
[13] = Oral bioavailability in dog at 5 mg/kg; format: ADME, organism-based, Canis lupus familiaris; conditions: in vivo
[14] = system: Mus musculus; assay: Reduction in TNBS-induced colitis in mouse […] model assessed as decrease of body weight at 3 mg/kg, administered intrarectally 1 day before TNBS challenge twice daily for 4 days; format: functional; set-up: scale not given: the % may be the effect or the level left
[15] = molecular target: T1, Vascular endothelial growth factor receptor 2 (Homo sapiens, UniProt P35968); assay: Inhibition of KDR
[16] = system: Mus musculus; assay: Reduction in TNBS-induced colitis in mouse […] model assessed as decrease in inflammation histological score at 10 mg/kg administered intrarectally 1 day before TNBS challenge twice daily for 4 days by hematoxylin-eosin staining relative to control; format: functional, organism-based; set-up: dose 10 mg/kg
[17] = Lipophilicity, log P of the compound by HPLC analysis; format: physicochemical
[18] = system: Blood; assay: Antiinflammatory activity in mouse whole blood assessed as inhibition of LPS-induced TNFalpha release treated for 45 mins before LPS challenge measured after 6 hrs by ELISA; format: functional, tissue-based
[19] = Oral bioavailability in Lewis rat at 10 mg/kg; format: ADME, organism-based; conditions: in vivo
[20] = molecular target: Ephrin type-A receptor 1 (Homo sapiens) (UniProt P21709); assay: Inhibition of EPHA1 at 10 uM
[21] = molecular target: T2, Inhibitor of nuclear factor kappa-B kinase subunit beta (Homo sapiens, UniProt O14920); assay: Inhibition of human IKK2-mediated GST-IkappaBalpha protein fusion phosphorylation
T2 sequence (O14920 whole entry): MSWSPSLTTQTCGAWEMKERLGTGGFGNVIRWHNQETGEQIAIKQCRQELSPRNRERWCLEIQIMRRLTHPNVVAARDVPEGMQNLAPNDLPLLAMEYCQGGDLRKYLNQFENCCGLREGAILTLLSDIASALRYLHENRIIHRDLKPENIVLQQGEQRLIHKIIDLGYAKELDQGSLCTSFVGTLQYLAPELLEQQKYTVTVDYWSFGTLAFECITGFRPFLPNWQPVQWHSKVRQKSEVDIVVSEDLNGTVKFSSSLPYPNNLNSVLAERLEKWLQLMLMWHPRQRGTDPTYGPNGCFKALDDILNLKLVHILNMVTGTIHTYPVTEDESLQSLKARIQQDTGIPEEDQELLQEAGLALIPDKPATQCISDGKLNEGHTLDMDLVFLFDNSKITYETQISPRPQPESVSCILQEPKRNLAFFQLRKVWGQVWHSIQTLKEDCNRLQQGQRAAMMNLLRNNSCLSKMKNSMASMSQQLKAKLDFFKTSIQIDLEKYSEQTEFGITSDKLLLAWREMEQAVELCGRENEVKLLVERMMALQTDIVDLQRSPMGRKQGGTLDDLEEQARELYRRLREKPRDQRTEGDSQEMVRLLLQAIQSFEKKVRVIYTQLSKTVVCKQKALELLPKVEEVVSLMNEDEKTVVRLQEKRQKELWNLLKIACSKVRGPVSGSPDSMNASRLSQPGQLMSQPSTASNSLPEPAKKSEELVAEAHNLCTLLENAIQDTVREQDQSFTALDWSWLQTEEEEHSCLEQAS

[22] = system: Blood; assay: Antiinflammatory activity in human whole blood assessed as inhibition of LPS-induced TNFalpha release treated for 45 mins before LPS challenge measured after 6 hrs by ELISA; format: functional, tissue-based; conditions: Homo sapiens, Blood
[23] = molecular target: Protein-tyrosine kinase 6 (Homo sapiens, UniProt Q13882); assay: Inhibition of BRK
[24] = molecular target: T1, Vascular endothelial growth factor receptor 2; conditions: 10 uM
Description: Inhibition of KDR at 10 uM

[25] = system: Salmonella typhimurium; assay: Induction of mutagenicity in Salmonella Typhimurium by Ames test; format: toxicity, organism-based; conditions: salmonella enterica subsp. enterica serovar typhimurium
[26] = molecular target: Cytochrome P450 1A2 (Homo sapiens, UniProt P05177); assay: Inhibition of CYP1A2; format: ADME
[27] = AUC in dog at 5 mg/kg, po; format: ADME, organism-based, Canis lupus familiaris; set-up: dose 5 mg/kg, route oral; conditions: plasma
[28] = molecular target: Ephrin type-B receptor 1 (Homo sapiens, UniProt P54762); assay: Inhibition of EphB1
[29] = Protein binding in mouse serum; format: ADME, cell-free; conditions: read-out: PB (converted)
[30] = molecular target: Inhibitor of nuclear factor kappa-B kinase subunit alpha (Homo sapiens) (UniProt O15111); assay: Inhibition of IKK1 at 10 uM
[31] = system: Mus musculus; assay: Reduction in TNBS-induced colitis in mouse […] model assessed as decrease of colon length at 3 mg/kg, administered intrarectally 1 day before TNBS challenge twice daily for 4 days; format: functional
[32] = Volume of distribution at steady state in Lewis rat at 2 mg/kg, iv; format: ADME, organism-based; set-up: dose 2 mg/kg, route intravenous; conditions: in vivo, read-out: Vdss
[33] = molecular target: hERG (KCNH2) (Homo sapiens, UniProt Q12809); assay: Inhibition of human ERG at 30 uM by patch clamp assay
[34] = AUC in Sprague-Dawley rat plasma at 2 mg/kg, iv after 8 hrs; format: ADME, organism-based; set-up: time < 8 hr, dose 2 mg/kg, route intravenous
[35] = Clearance in mouse at 2 mg/kg, iv; format: ADME, organism-based; set-up: dose 2 mg/kg, route intravenous; conditions: in vivo
[36] = molecular target: Cytochrome P450 3A4 (Homo sapiens, UniProt P08684); assay: Inhibition of CYP3A4; format: ADME
[37] = molecular target: Vascular endothelial growth factor receptor 3 (Homo sapiens, UniProt P35916); assay: Inhibition of FLT4 at 10 uM
[38] = AUC in SJL mouse plasma at 8 mg/kg, iv after 8 hrs; format: ADME, organism-based; set-up: time < 8 hr, dose 8 mg/kg, route intravenous
[39] = AUC in Sprague-Dawley rat liver at 2 mg/kg, iv after 8 hrs; format: ADME, organism-based; set-up: time < 8 hr, dose 2 mg/kg, route intravenous
[40] = Volume of distribution at steady state in mouse at 2 mg/kg, iv; format: ADME, organism-based; set-up: dose 2 mg/kg, route intravenous; conditions: in vivo, read-out: Vdss
[41] = molecular target: Cytochrome P450 2C19 (Homo sapiens, UniProt P33261); assay: Inhibition of CYP2C19; format: ADME
[42] = molecular target: Cytochrome P450 2D6 (Homo sapiens, UniProt P10635); assay: Inhibition of CYP2D6; format: ADME

T1 sequence (P35968 whole entry): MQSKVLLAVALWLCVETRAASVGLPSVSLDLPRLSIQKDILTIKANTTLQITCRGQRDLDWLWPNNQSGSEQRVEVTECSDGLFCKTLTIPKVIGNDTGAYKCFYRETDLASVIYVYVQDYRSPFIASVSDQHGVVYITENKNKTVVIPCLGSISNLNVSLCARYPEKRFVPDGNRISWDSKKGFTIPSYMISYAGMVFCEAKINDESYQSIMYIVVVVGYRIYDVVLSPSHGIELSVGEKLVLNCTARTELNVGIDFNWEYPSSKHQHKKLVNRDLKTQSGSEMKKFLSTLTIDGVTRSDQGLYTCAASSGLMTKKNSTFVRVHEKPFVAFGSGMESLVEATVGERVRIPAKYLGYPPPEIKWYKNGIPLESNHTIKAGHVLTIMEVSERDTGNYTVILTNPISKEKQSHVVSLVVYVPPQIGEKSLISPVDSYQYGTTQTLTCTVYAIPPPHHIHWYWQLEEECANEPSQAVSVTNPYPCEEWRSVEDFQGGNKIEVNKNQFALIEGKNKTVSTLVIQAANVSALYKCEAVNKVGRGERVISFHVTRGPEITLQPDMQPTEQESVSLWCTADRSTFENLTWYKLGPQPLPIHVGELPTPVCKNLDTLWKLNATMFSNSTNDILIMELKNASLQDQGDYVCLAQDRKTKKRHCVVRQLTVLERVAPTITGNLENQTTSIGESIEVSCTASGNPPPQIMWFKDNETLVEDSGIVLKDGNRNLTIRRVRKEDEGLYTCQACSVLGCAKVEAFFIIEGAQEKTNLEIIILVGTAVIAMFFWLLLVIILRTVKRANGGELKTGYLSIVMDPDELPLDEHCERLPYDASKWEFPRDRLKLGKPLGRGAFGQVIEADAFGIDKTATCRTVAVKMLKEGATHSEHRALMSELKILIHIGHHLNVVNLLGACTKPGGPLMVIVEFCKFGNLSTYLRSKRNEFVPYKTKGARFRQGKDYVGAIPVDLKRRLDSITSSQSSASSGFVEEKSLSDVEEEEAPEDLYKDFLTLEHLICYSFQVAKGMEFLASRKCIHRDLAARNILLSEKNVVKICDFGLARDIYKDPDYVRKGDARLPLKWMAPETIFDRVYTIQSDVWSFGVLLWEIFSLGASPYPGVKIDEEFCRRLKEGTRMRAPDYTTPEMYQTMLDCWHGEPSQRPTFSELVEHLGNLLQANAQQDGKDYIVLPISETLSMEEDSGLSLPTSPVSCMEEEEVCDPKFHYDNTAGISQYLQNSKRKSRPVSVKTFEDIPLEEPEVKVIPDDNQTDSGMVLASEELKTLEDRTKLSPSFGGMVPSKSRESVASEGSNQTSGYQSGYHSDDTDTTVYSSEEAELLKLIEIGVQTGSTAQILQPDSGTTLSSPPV
Chain of Cytochrome P450 2C19 (P33261 whole entry): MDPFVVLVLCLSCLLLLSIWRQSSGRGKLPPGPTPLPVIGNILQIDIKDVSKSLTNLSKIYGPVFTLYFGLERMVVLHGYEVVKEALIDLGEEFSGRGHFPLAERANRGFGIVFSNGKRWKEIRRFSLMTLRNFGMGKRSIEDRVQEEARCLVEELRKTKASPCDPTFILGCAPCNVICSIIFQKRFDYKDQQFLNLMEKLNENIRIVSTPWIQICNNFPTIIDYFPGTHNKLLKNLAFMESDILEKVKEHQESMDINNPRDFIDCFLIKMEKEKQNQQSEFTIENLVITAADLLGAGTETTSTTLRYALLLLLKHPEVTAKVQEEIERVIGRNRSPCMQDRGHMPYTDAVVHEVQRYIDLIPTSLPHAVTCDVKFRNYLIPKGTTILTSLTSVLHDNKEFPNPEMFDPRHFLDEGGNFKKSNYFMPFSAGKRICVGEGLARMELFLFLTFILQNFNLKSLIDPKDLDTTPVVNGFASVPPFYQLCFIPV
Chain of Cytochrome P450 3A4 (P08684 whole entry): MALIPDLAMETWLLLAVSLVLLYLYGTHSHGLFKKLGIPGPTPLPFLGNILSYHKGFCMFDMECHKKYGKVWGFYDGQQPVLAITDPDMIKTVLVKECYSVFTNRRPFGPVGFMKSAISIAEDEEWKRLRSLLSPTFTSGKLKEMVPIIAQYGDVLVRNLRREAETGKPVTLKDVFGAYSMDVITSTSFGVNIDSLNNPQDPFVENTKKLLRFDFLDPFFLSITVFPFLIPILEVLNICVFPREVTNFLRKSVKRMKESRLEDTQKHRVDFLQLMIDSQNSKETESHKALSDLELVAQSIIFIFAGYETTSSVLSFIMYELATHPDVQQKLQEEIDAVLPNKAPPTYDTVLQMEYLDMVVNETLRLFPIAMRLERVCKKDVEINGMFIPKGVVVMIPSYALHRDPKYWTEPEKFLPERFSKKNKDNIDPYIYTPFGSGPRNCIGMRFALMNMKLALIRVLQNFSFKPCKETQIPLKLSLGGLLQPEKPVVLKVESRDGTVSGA
Chain of Ephrin type-A receptor 1 (Homo sapiens) (P21709 whole entry, the tested form may be a part): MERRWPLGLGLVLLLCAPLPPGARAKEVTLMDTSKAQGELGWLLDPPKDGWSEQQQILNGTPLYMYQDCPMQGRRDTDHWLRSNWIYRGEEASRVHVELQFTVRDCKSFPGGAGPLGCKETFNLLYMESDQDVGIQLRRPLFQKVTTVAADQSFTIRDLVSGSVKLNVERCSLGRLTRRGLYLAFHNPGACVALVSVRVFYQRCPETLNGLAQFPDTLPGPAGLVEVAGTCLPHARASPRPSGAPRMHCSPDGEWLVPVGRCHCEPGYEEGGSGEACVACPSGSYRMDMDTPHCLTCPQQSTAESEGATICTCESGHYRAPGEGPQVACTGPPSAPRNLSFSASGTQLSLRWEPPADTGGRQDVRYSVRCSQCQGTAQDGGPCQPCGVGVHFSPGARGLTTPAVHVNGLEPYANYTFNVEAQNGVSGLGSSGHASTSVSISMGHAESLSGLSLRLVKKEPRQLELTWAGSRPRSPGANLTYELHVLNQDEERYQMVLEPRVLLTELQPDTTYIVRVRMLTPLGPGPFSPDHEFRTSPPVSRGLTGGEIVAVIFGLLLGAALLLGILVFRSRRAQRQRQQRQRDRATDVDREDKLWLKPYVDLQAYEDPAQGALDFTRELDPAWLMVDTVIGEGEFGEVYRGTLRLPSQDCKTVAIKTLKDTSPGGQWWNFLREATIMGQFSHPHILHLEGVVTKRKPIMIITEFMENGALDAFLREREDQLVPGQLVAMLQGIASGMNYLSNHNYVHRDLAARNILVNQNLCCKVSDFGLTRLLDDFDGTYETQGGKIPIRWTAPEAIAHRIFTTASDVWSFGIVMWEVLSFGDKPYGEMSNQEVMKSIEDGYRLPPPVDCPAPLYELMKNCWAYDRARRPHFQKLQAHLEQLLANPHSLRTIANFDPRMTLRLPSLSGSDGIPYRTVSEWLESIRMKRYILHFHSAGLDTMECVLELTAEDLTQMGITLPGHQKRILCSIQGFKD
Chain of Inhibitor of nuclear factor kappa-B kinase subunit alpha (Homo sapiens) (O15111 whole entry): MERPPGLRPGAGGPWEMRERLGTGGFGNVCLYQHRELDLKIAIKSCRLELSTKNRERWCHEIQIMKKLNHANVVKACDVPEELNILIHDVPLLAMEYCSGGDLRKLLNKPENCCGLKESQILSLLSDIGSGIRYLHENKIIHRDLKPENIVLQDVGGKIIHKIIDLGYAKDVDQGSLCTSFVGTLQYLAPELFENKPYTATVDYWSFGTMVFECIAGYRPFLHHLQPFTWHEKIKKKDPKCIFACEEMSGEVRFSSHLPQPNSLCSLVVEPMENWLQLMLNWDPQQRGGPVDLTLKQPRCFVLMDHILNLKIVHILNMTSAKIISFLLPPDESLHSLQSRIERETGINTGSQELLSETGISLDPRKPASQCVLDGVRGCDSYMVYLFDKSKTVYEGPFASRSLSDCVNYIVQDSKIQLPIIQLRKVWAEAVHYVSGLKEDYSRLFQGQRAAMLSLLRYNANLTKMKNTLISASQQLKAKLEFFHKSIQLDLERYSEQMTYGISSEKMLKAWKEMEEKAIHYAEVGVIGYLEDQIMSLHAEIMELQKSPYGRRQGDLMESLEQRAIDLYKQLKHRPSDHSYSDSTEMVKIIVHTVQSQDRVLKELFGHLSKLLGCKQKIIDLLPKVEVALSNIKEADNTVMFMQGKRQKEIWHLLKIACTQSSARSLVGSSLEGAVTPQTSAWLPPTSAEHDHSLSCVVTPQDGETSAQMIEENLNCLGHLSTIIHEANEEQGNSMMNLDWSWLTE
Chain of Ephrin type-B receptor 1 (P54762 whole entry): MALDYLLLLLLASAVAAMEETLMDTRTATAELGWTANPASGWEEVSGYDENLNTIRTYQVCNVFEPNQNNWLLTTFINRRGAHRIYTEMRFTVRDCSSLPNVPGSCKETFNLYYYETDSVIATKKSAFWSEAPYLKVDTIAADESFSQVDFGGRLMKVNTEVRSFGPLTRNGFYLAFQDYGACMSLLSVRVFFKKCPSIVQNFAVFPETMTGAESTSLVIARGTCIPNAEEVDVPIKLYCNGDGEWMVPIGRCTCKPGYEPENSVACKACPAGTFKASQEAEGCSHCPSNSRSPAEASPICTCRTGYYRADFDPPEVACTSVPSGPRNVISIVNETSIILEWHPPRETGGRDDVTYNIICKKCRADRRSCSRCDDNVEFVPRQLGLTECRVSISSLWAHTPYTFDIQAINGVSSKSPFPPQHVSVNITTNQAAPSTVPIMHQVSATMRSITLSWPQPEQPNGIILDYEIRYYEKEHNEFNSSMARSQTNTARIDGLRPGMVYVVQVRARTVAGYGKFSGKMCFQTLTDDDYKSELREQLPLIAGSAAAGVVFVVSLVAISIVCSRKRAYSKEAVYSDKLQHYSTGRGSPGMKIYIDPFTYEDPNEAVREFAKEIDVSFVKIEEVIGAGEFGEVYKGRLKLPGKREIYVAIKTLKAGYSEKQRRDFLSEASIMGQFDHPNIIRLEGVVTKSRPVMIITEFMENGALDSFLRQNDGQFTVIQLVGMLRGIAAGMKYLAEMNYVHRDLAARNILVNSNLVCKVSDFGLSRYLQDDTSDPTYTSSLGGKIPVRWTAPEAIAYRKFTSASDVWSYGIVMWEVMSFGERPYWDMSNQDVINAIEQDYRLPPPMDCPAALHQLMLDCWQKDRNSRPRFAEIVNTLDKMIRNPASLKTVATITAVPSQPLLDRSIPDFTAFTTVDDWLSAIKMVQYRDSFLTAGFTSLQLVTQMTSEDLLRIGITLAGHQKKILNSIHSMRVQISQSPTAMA

CNc1nc2[nH]c(-c3cccc(CNC(=O)COC)n3)cc2c2c1ncn2C
half-life [1]: 3.7 h | half-life [2]: 0.66 h | bioavailability [3]: 79% | Activity [4]: Active | clearance [5]: 0.27 L/h/kg | fraction unbound [6]: 0.074 | Vd [7]: 0.6 L/kg | Activity [8]: Active | fraction unbound [9]: 0.069 | AUC at 8 h [10]: 81 µM·h | IC50 [11]: 0.15 µM | half-life [12]: 3.3 h | bioavailability [13]: 72% | Activity [14]: 10% | IC50 [15]: 1.49 µM | Activity [16]: Active | logP [17]: 2 | IC50 [18]: 1.2 µM | bioavailability [19]: 90% | inhibition [20]: > 75% | IC50 [21]: 0.009 µM | IC50 [22]: 1 µM | IC50 [23]: 0.31 µM | inhibition [24]: > 75% | Activity [25]: Non-toxic | IC50 [26]: > 40 µM | AUC [27]: 50 µM·h | IC50 [28]: 1.11 µM | fraction unbound [29]: 0.084 | inhibition [30]: > 75% | Activity [31]: 1 cm | Vd [32]: 0.5 L/kg | inhibition at 30 µM [33]: 18% | AUC at 8 h [34]: 13 µM·h | clearance [35]: 3.12 L/h/kg | IC50 [36]: > 40 µM | inhibition [37]: > 75% | AUC at 8 h [38]: 18 µM·h | AUC at 8 h [39]: 16 µM·h | Vd [40]: 1.8 L/kg | IC50 [41]: > 40 µM | IC50 [42]: > 40 µM
